Source: patent publication US20230364243A1, “CANCER-SELECTIVE TARGET DEGRADATION BY TARGETING GROUP CAGED PROTACS” (Beth Israel Deaconess Medical Center, Inc., priority 2021, published 2023)
pIC50: −log10 of the molar value.

Key:
Format in all cases: cell-based
[1] = molecular target: T1, IKZF3 (Homo sapiens, UniProt Q9UKT9); assay: Western blotting of IKZF3 in MM.1S cells; settings: FOLR1-positive MM.1S cells, 12 hours
T1 construct: endogenous in cells; host or cells: MM.1S (also MM.1S-CRBN+/+ and CRBN-/-)
T1 sequence (Q9UKT9 whole entry): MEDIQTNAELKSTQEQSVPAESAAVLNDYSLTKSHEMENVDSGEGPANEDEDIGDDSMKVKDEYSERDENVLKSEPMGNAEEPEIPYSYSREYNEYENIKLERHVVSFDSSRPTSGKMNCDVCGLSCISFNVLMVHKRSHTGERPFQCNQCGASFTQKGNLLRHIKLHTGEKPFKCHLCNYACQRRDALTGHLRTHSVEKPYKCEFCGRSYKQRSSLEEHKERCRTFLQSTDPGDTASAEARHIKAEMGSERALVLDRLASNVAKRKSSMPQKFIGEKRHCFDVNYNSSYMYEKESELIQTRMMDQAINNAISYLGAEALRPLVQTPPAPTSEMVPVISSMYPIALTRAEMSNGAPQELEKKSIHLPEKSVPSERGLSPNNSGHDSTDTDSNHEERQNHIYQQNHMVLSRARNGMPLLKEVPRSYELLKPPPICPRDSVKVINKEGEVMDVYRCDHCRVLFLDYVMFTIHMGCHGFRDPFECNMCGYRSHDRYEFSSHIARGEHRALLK
T1 sequence (Q96SW2 whole entry, further chain): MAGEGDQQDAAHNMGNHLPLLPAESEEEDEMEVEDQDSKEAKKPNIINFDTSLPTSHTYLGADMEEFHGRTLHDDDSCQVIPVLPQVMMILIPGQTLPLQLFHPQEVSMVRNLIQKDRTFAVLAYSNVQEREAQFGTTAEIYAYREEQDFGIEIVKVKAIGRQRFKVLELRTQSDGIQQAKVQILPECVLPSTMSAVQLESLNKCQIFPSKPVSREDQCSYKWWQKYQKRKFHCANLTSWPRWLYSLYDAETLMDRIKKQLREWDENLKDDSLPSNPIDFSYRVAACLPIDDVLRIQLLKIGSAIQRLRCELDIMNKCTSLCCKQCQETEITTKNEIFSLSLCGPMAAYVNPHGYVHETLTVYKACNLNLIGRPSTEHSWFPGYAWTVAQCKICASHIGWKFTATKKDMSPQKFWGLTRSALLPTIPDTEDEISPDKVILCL
T1 sequence (Q16531 whole entry partner): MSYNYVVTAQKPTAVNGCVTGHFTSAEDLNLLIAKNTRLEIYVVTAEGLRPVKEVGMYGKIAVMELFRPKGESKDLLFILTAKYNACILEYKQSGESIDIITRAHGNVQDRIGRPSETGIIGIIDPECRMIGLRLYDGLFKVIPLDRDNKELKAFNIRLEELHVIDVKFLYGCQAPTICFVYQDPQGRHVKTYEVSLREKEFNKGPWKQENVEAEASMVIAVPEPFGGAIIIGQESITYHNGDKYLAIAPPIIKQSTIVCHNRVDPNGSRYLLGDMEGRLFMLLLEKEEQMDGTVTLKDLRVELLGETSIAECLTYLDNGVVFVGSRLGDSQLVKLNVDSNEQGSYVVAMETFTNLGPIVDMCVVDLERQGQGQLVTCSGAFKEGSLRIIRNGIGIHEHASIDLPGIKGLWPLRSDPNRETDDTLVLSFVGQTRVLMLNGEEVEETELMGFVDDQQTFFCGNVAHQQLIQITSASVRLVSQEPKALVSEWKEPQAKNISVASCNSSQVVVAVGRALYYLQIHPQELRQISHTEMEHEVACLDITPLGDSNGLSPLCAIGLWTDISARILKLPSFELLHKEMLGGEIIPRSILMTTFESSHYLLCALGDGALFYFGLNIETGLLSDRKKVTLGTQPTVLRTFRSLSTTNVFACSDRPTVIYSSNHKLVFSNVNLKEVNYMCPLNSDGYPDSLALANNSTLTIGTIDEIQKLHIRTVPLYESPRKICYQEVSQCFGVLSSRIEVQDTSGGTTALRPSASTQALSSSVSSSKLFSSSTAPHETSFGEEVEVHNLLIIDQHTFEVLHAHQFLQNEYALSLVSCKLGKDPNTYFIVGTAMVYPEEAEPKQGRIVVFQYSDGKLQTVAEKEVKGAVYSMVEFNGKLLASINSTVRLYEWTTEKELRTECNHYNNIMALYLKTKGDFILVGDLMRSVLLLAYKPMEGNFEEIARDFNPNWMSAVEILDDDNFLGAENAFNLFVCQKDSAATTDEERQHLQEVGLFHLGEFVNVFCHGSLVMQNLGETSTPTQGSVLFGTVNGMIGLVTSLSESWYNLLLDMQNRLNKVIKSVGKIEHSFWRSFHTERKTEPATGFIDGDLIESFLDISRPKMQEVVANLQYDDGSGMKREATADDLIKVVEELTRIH
Experimental: (§1) For folic acid competitive degradation assay, cells were pretreated with folic acid (F8758, Sigma-Aldrich, 2.5 mM) for 2 hours, followed by the treatment of indicated PROTACs for indicated time. […] For proteasome or E3 ligase inhibition assay, cells were treated with MG132 (BML-P11020, ENZO Life Sciences, 10 μM) or MLN4924 (S7109, SelleckChem, 1 μM) another 12 hours.
(§2) Cells were lysed in EBC buffer (50 mM Tris-HCl pH 7.5, 120 mM NaCl and 0.5% NP-40) supplemented with protease inhibitors (Pierce) and phosphatase inhibitors (phosphatase inhibitor cocktailset I and II, Calbiochem). The protein concentrations of the lysates were measured using the Bio-Rad protein assay reagent on a Beckman Coulter DU-800 spectrophotometer. The lysates (40 μg protein) werethen resolved by 10% SDS-olyacrylamide gel electrophoresis (PAGE) at 130 V for 80 min and immunoblotted with indicated antibodies at 4° C. overnight, washed four times with Tris-buffered saline with 0.1% Tween-20 (TBST) buffer, incubated with secondary antibody for 1 hour at room temperature, and then washed 4 times with TBST.

[2] = molecular target: T2, IKZF3 (Homo sapiens, UniProt Q96SW2+Q9UKT9); assay: Western blotting of IKZF3 in FOLR1-negative THP-1 cells; design: endogenous in cells; settings: 12 hours
T2 sequence (Q9UKT9 whole entry): as the sequence (Q9UKT9 whole entry) above
T2 sequence (Q96SW2 whole entry): as the sequence (Q96SW2 whole entry, further chain) above
T2 sequence (Q16531 whole entry partner): as the sequence (Q16531 whole entry partner) above
Experimental: as §2

[3] = molecular target: T3, IKZF1 (Homo sapiens, UniProt Q13422+Q96SW2); assay: Western blotting of IKZF1 in SU-DHL-1 cells; settings: FOLR1-positive SU-DHL-1 cells, 12 hours
T3 construct: endogenous in cells; host or cells: SU-DHL-1
T3 sequence (Q13422 whole entry): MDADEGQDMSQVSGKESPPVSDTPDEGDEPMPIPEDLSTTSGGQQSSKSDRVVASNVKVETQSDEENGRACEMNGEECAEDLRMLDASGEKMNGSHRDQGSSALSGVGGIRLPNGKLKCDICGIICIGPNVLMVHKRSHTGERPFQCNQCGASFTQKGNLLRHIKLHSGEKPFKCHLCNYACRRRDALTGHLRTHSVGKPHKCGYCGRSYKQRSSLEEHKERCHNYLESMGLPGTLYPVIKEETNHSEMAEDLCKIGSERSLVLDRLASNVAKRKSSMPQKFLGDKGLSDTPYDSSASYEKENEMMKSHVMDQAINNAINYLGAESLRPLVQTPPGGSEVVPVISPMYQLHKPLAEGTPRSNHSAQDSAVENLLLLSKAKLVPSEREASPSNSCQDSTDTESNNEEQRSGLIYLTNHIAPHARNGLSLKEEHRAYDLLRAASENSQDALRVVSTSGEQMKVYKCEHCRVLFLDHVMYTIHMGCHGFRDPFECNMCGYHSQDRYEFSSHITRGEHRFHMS
T3 sequence (Q96SW2 whole entry): as the sequence (Q96SW2 whole entry, further chain) above
T3 sequence (Q16531 whole entry partner): as the sequence (Q16531 whole entry partner) above
Experimental: as §2

[4] = test system: MM.1S cells; assay: Cell viability / proliferation of MM.1S cells (CCK-8); settings: Homo sapiens, MM1.S, 72 hours
Experimental: For folic acid competitive degradation assay, cells were pretreated with folic acid (F8758, Sigma-Aldrich, 2.5 mM) for 2 hours, followed by the treatment of indicated PROTACs for indicated time. For endocytosis inhibition, cells were pretreated with Pitostop 2 (SML1169, Sigma-Aldrich, 1-30 μM) or MCD (21633, Cayman, 0.03-1 mM) for 12 hours, followed by co-treatment with indicated PROTACs for another 12 hours. For proteasome or E3 ligase inhibition assay, cells were treated with MG132 (BML-P11020, ENZO Life Sciences, 10 μM) or MLN4924 (S7109, SelleckChem, 1 μM) another 12 hours. For GSH-stimulating assay, cells were treated with S-Acetyl-GSH (29624, Cayman, 1 mM) with indicated PROTACs for 12 or 72 hours.
Cell in 96-well plates were treated with drugs as indicated, and then incubated with 10 μl/well of CCK-8 (cell counting Kit-8) solution at for 1-2 hours, followed by the measurement of optical density at 450 nm.

[5] = molecular target: T2, IKZF3; assay: Western blotting of IKZF3 in MM.1S cells; design: endogenous in cells; host or cells: MM.1S (also MM.1S-CRBN+/+ and CRBN-/-); settings: MM.1S cells, CRBN knockout
Experimental: as §1, §2

## Nc1cccc2c1C(=O)N(C1CCC(=O)NC1=O)C2=O (centres unmarked) [pomalidomide, reference compound]
[1]
  degradation of IKZF3: degrade IKZF3 or IKZF1
[2]
  degradation of IKZF3: degrade IKZF3 or IKZF1
[3]
  degradation of IKZF1: degrade IKZF3 or IKZF1
[4]
  pIC50: 7.24
[5]
  effect on degrading IKZF3 after depletion of endogenous CRBN E3 ubiquitin ligase: completely abolished the effect
